# Assay results as given in BindingDB's records for doi:10.7270/Q24X5684 (Nmmlsc, 2010).
# Molecular target: T1, Integrin alpha-4 (Homo sapiens, UniProt P13612)
# T1 sequence (P13612 whole entry): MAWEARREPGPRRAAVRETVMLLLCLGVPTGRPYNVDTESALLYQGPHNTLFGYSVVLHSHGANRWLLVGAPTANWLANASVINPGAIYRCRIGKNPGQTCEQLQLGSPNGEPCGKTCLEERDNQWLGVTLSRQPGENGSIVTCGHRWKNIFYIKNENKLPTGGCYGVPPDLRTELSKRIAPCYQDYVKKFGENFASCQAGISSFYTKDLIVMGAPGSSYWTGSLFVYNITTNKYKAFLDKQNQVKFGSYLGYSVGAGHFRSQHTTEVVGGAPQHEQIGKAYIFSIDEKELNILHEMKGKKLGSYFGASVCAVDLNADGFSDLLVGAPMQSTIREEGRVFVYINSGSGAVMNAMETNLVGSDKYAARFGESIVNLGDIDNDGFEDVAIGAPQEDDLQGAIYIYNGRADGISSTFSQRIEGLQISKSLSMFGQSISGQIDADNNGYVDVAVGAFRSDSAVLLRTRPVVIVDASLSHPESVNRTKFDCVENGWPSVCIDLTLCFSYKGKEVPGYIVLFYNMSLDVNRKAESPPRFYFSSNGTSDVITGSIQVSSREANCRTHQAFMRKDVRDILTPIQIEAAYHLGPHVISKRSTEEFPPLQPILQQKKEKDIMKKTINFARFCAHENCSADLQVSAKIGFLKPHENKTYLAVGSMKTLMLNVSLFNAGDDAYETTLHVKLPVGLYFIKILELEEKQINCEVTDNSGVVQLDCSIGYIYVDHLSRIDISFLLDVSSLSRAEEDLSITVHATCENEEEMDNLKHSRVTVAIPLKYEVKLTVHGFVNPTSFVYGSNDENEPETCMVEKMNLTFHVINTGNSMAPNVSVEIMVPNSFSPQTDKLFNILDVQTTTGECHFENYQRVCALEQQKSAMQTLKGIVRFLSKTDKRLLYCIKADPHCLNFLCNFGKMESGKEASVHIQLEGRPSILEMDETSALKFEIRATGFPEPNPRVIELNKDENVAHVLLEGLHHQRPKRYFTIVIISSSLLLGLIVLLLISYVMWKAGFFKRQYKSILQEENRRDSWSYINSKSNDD
# Test: allosteric modulators of alpha4 integrin VLA-4 – cell-based, LIBS antibody binding, flow cytometry, SAR follow-up (AID 488791)
row,EC50 [µM],SMILES
1,16.4,Cc1ccc(NC(=O)c2cc(-n3c(O)ccc3O)ccc2N2CCOCC2)cc1
2,23.3,Cc1ccc(NC(=O)c2cc(-n3c(O)ccc3O)ccc2N2CCOCC2)cc1Cl [VU0419498-1]
